This passage reports IC50 results from patent US20220073536A1 (Rigel Pharmaceuticals, Inc., priority 2003, published 2022).

Read-outs that look alike come from different tables or passages of the source.

The assay concerns cultured human mast cells (CHMC). Nature of the assay: CHMC low cell density IgE activation: tryptase assay. The class given is cell-based. The settings on record: Homo sapiens, Mast cell, low cell density CHMC, IgE activation, tryptase. The essentials: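 CHMC at 1000–1500 cells/well were preincubated 1 hr at 37° C., stimulated with anti-IgE for 30 minutes at 37° C., then pelleted. Supernatant tryptase was measured with a fluorogenic substrate after 30 min at room temperature, against un-stimulated control wells.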

Setting [1] is: 8 pt, read-out: LD Tryptase, CHMC, IgE, 8 pt.
Setting [2] is: 3 pt, read-out: LD Tryptase, CHMC, IgE, 3 pt.

For `CC1(C)Oc2ccc(Nc3nc(Nc4ccc5c(cnn5CC5CC5)c4)ncc3F)cc2NC1=O` [Compound 736, N2-[1-(Cyclopropylmethyl)indazol-5-yl]-N4-(2,2-dimethyl-3-oxo-4H-benz[1,4]oxazin-6-yl)-5-fluoro-2,4-pyrimidinediamine], under setting [1], the IC50 is less than 10 µM. Consider `COc1cc(Nc2nc(Nc3ccc4c(cnn4CC4CC4)c3)ncc2F)ccc1F` [Compound 737, N2-[1-(Cyclopropylmethyl)indazol-5-yl)-5-fluoro-N4-(4-fluoro-3-methoxyphenyl)-2,4-pyrimidinediamine], for which the IC50 under setting [1] is less than 10 µM. On to `COc1ccc(Nc2nc(Nc3ccc4cnn(CC5CC5)c4c3)ncc2F)cc1Cl` [Compound 738, N4-(3-Chloro-4-methoxyphenyl)-N2-[1-(cyclopropylmethyl)indazol-6-yl]-5-fluoro-2,4-pyrimidinediamine], for which the IC50 under setting [1] was less than 10 µM. Take `Fc1cnc(Nc2ccc3cnn(CC4CC4)c3c2)nc1Nc1ccc(Cl)c(Cl)c1` [Compound 739, N2-[1-(Cyclopropylmethyl)indazol-6-yl]-N4-(3,4-dichlorophenyl)-5-fluoro-2,4-pyrimidinediamine]: under setting [2], the IC50 is less than 10 µM. In the case of `CC1(C)Oc2ccc(Nc3nc(Nc4ccc5cnn(CC6CC6)c5c4)ncc3F)cc2NC1=O` [Compound 740, N2-[1-(Cyclopropylmethyl)indazol-6-yl]-N4-(2,2-dimethyl-3-oxo-4H-benz[1,4]oxazin-6-yl)-5-fluoro-2,4-pyrimidinediamine], the IC50 under setting [1] is less than 10 µM. Same read-out and setting: as for `COc1cc(Nc2nc(Nc3ccc4cnn(CC5CC5)c4c3)ncc2F)ccc1F` [Compound 741, N2-[1-(Cyclopropylmethyl)indazol-6-yl)-5-fluoro-N4-(4-fluoro-3-methoxyphenyl)-2,4-pyrimidinediamine], the figure is less than 10 µM. Turning to `COc1ccc(Nc2nc(Nc3ccc4c(cnn4C4CCCCC4)c3)ncc2F)cc1Cl` [Compound 742, N4-(3-Chloro-4-methoxyphenyl)-N2-(1-cyclohexylindazol-5-yl)-5-fluoro-2,4-pyrimidinediamine], the IC50 is less than 10 µM under setting [2] and less than 10 µM under setting [1]. On to `Fc1cnc(Nc2ccc3c(cnn3C3CCCCC3)c2)nc1Nc1ccc(Cl)c(Cl)c1` [Compound 743, N2-(1-Cyclohexylindazol-5-yl)-N4-(3,4-dichlorophenyl)-5-fluoro-2,4-pyrimidinediamine], for which the IC50 under setting [2] was less than 10 µM. For the molecule `CC1(C)Oc2ccc(Nc3nc(Nc4ccc5c(cnn5C5CCCCC5)c4)ncc3F)cc2NC1=O` [Compound 744, N2-(1-Cyclohexylindazol-5-yl)-N4-(2,2-dimethyl-3-oxo-4H-benz[1,4]oxazin-6-yl)-5-fluoro-2,4-pyrimidinediamine], the IC50 under setting [1] was less than 10 µM. With `COc1cc(Nc2nc(Nc3ccc4c(cnn4C4CCCCC4)c3)ncc2F)ccc1F` [Compound 745, N2-(1-Cyclohexylindazol-5-yl)-5-fluoro-N4-(4-fluoro-3-methoxyphenyl)-2,4-pyrimidinediamine], the IC50 under setting [2] is less than 10 µM.

`COc1ccc(Nc2nc(Nc3ccc4cnn(C5CCCCC5)c4c3)ncc2F)cc1Cl` [Compound 746, N4-(3-Chloro-4-methoxyphenyl)-N2-(1-cyclohexylindazol-6-yl)-5-fluoro-2,4-pyrimidinediamine]: the IC50 under setting [2] is less than 10 µM. As for `Fc1cnc(Nc2ccc3cnn(C4CCCCC4)c3c2)nc1Nc1ccc(Cl)c(Cl)c1` [Compound 747, N2-(1-Cyclohexylindazol-6-yl)-N4-(3,4-dichlorophenyl)-5-fluoro-2,4-pyrimidinediamine], the IC50 under setting [2] is less than 10 µM.

For the molecule `CC1(C)Oc2ccc(Nc3nc(Nc4ccc5cnn(C6CCCCC6)c5c4)ncc3F)cc2NC1=O` [Compound 748, N2-(1-Cyclohexylindazol-6-yl)-N4-(2,2-dimethyl-3-oxo-4H-benz[1,4]oxazin-6-yl)-5-fluoro-2,4-pyrimidinediamine], under setting [1], the IC50 is less than 10 µM. Take `COc1cc(Nc2nc(Nc3ccc4cnn(C5CCCCC5)c4c3)ncc2F)ccc1F` [Compound 749, N2-(1-Cyclohexylindazol-6-yl)-5-fluoro-N4-(4-fluoro-3-methoxyphenyl)-2,4-pyrimidinediamine]: the IC50 under setting [2] was less than 10 µM.

On to `Cc1n[nH]c2cc(Nc3ncc(F)c(Nc4ccc(Cl)c(Cl)c4)n3)ccc12` [Compound 750, N4-(3,4-Dichlorophenyl)-5-fluoro-N2-(3-methylindazol-6-yl)-2,4-pyrimidinediamine], for which the IC50 under setting [2] is less than 10 µM and the IC50 under setting [1] was less than 10 µM.

`Cc1n[nH]c2cc(Nc3ncc(F)c(Nc4ccc5c(c4)NC(=O)C(C)(C)O5)n3)ccc12` [Compound 751, N4-(2,2-Dimethyl-3-oxo-4H-benz[1,4]oxazin-6-yl)-5-fluoro-N2-(3-methylindazol-6-yl)-2,4-pyrimidinediamine]: the IC50 is, setting by setting: under setting [2], less than 10 µM; under setting [1], less than 10 µM. As to `COc1ccc(Nc2nc(Nc3ccc4c(C)nn(C)c4c3)ncc2F)cc1Cl` [Compound 752, N4-(3-Chloro-4-methoxyphenyl)-N2-(1,3-dimethylindazol-6-yl)-5-fluoro-2,4-pyrimidinediamine], the IC50 under setting [2] is less than 10 µM and the IC50 under setting [1] is less than 10 µM. Turning to `Cc1nn(C)c2cc(Nc3ncc(F)c(Nc4ccc(Cl)c(Cl)c4)n3)ccc12` [Compound 753, N4-(3,4-Dichlorophenyl)-N2-(1,3-dimethylindazol-6-yl)-5-fluoro-2,4-pyrimidinediamine], the IC50 under setting [2] is less than 10 µM and the IC50 under setting [1] is less than 10 µM. For the molecule `Cc1nn(C)c2cc(Nc3ncc(F)c(Nc4ccc5c(c4)NC(=O)C(C)(C)O5)n3)ccc12` [Compound 754, N2-(1,3-Dimethylindazol-6-yl)-N4-(2,2-dimethyl-3-oxo-4H-benz[1,4]oxazin-6-yl)-5-fluoro-2,4-pyrimidinediamine], the IC50 under setting [2] was less than 10 µM and the IC50 under setting [1] was less than 10 µM. On to `COc1cc(Nc2nc(Nc3ccc4c(C)nn(C)c4c3)ncc2F)ccc1F` [Compound 755, N2-(1,3-Dimethylindazol-6-yl)-5-fluoro-N4-(4-fluoro-3-methoxyphenyl)-2,4-pyrimidinediamine], for which the IC50 was less than 10 µM under setting [2] and less than 10 µM under setting [1].

As for `COc1ccc(Nc2nc(Nc3cc4cnn(C)c4cc3C)ncc2F)cc1Cl` [Compound 756, N4-(3-Chloro-4-methoxyphenyl)-N2-(1,6-dimethylindazol-5-yl)-5-fluoro-2,4-pyrimidinediamine], the IC50 under setting [2] was less than 10 µM. Still for that read-out and setting: as for `Cc1cc2c(cnn2C)cc1Nc1ncc(F)c(Nc2ccc(Cl)c(Cl)c2)n1` [Compound 757, N4-(3,4-Dichlorophenyl)-N2-(1,6-dimethylindazol-5-yl)-5-fluoro-2,4-pyrimidinediamine], the figure is less than 10 µM.

On to `Cc1cc2c(cnn2C)cc1Nc1ncc(F)c(Nc2ccc3c(c2)NC(=O)C(C)(C)O3)n1` [Compound 758, N2-(1,6-Dimethylindazol-5-yl)-N4-(2,2-dimethyl-3-oxo-4H-benz[1,4]oxazin-6-yl)-5-fluoro-2,4-pyrimidinediamine], for which the IC50 reads like this: under setting [2], less than 10 µM; under setting [1], less than 10 µM. Take `COc1cc(Nc2nc(Nc3cc4cnn(C)c4cc3C)ncc2F)ccc1F` [Compound 759, N2-(1,6-Dimethylindazol-5-yl)-5-fluoro-N4-(4-fluoro-3-methoxyphenyl)-2,4-pyrimidinediamine]: the IC50 under setting [2] was less than 10 µM. As for `CCn1cc2ccc(Nc3ncc(F)c(Nc4ccc(Cl)c(Cl)c4)n3)cc2n1` [Compound 760, N4-(3,4-Dichlorophenyl)-N2-(2-ethylindazol-6-yl)-5-fluoro-2,4-pyrimidinediamine], the IC50 is less than 10 µM under setting [2] and less than 10 µM under setting [1].
